Measurements reported in patent US9326990B2, “Heart failure suppressing agent” (THE UNIVERSITY OF TOKYO, priority 2011, dated 2016).

Tests used:
Assay type in all cases: in vivo
[1] = system: BNP (brain natriuretic peptide) gene expression; assay: Real time PCR of cardiomegaly/heart failure marker gene BNP in ventricular tissue, angiotensin II rat model; conditions: corrected with GAPDH, Ang II + luteolin glycoside, FIG. 7
Procedure: (§1) Angiotensin II was continuously infused to an 8 week-old male SD rat, and the action of luteolin glycoside (luteolin-7-O-glucoside was used) to cardiac fibrosis and cardiomegaly in the acceleration state of oxidative stress was investigated. For the control group, rats were normally raised. For the angiotensin II group (Ang II group), an angiotensin II-continuous infusion pump was implanted subcutaneously in the rat, and continuous infusion was performed for 7 days. […]
(§2) The blood pressure was measured at the seventh day, the degree of the ventricular wall thickness was evaluated with echocardiographic examination, then the heart was removed, and the weights of the heart and the ventricle were measured. The reactive oxygen was evaluated with hydroethidine staining, and the degree of fibrosis was evaluated with Masson's trichrome staining. Gene expressions of the fibrosis marker, and the heart failure marker in the ventricular tissue were evaluated with real time PCR.
(§3) RNA was extracted from the ventricular tissue, and expression amounts of various genes were evaluated with real time PCR.

[2] = system: CTGF (connective tissue growth factor) gene expression; assay: Real time PCR of fibrosis marker gene CTGF in ventricular tissue, angiotensin II rat model; conditions: corrected with GAPDH, Ang II + luteolin glycoside, FIG. 6
Procedure: as §1, §2, §3

[3] = system: ANP (atrial natriuretic peptide) gene expression; assay: Real time PCR of cardiomegaly/heart failure marker gene ANP in ventricular tissue, angiotensin II rat model; conditions: corrected with GAPDH, Ang II + luteolin glycoside, FIG. 7
Procedure: as §1, §2, §3

[4] = Plasma luteolin concentration after oral administration to rats; conditions: male SD rat, 93 mg/kg PO; in comparison to luteolin (51 mg/kg PO) and luteolin-7-O-apiosyl glucoside (175 mg/kg PO), same aglycone amount; 0.5-8 hours; FIG. 12
Procedure: Luteolin (51 mg/kg, PO), luteolin-7-O-glucoside (93 mg/kg, PO) and luteolin-7-O-apiosyl glucoside (175 mg/kg, PO) were orally administered to rats (8 weeks old, male SD rat), the blood was collected just before the administration, and at 0.5 hours, 1 hour, 2 hours and 8 hours after the administration from the tail vein, and the plasma luteolin concentration was measured. Meanwhile, the doses of each of the luteolin and a glycoside thereof were the same in terms of the amount of luteolin that is an aglycone.

[5] = system: angiotensin II-continuous infusion SD rat; assay: Angiotensin II-continuous infusion rat model of cardiac fibrosis and cardiomegaly
Procedure: Angiotensin II was continuously infused to an 8 week-old male SD rat, and the action of luteolin glycoside (luteolin-7-O-glucoside was used) to cardiac fibrosis and cardiomegaly in the acceleration state of oxidative stress was investigated. For the control group, rats were normally raised. For the angiotensin II group (Ang II group), an angiotensin II-continuous infusion pump was implanted subcutaneously in the rat, and continuous infusion was performed for 7 days. For the luteolin glycoside simultaneous-administration group (Ang II+LMG group), a luteolin glycoside-blended feed (3.6 g of luteolin monoglycoside (LMG) was blended per 10 kg of feed) was fed for 3 weeks, then an angiotensin II-continuous infusion pump was implanted subcutaneously, and continuous infusion was performed for 7 days.
as §2

[6] = system: ApoE gene-deficient female mouse (ApoE−/−); assay: Acute aneurysm model by angiotensin II-continuous infusion in ApoE gene-deficient mouse
From the text: Angiotensin II was continuously infused (for 16 weeks to 20 weeks) to a 12 week-old ApoE gene-deficient female mouse (ApoE−/−) (about 25 g of body weight) whereby to prepare an acute aneurysm model, and the action of luteolin glycoside (luteolin-7-O-glucoside was used) was investigated. For the control group (n=5), mice were normally raised (saline was continuously infused). For the angiotensin II group ([…]), an angiotensin II-continuous infusion pump was implanted subcutaneously in the mouse, and continuous infusion was performed for 4 weeks. For the luteolin glycoside simultaneous-administration group (Ang II+luteolin group), a luteolin glycoside-blended feed (0.055% of luteolin-7-O-glucoside was blended per feed) was fed for 3 weeks, then an angiotensin II-continuous infusion pump was implanted subcutaneously, and continuous infusion was performed for 4 weeks.
When the mouse was 20 weeks old, the blood pressure and body weight were measured, then the heart, the kidney and the aorta were removed, and generation of aneurysm was observed.

[7] = system: TGF-β1 (transforming growth factor) gene expression; assay: Real time PCR of fibrosis marker gene TGF-β1 in ventricular tissue, angiotensin II rat model; conditions: corrected with GAPDH, Ang II + luteolin glycoside, FIG. 6
Procedure: as §1, §2, §3

O=c1cc(-c2ccc(O)c(O)c2)oc2cc(O[C@@H]3O[C@H](CO)[C@@H](O)[C@H](O)[C@H]3O)cc(O)c12 [luteolin glycoside, luteolin-7-O-glucoside]
gene expression of BNP in ventricular tissue [1]: suppression of the expression
gene expression of CTGF in ventricular tissue [2]: suppression of the expression
gene expression of ANP in ventricular tissue [3]: suppression of the expression
oral absorption (plasma luteolin concentration) [4]: remarkably higher
blood pressure increased by angiotensin II-continuous administration ([5]; LMG-blended feed (3.6 g per 10 kg feed) 3 weeks, then Ang II infusion 7 days, seventh day, FIG. 1): did not lower
fibrosis of the ventricular wall by angiotensin II ([5]; LMG-blended feed, Ang II 7 days, Masson's trichrome staining, FIG. 5): remarkably suppressed
ventricular wall thickening by angiotensin II administration ([5]; LMG-blended feed, Ang II 7 days, echocardiographic examination, FIG. 2): significantly suppressed
generation of reactive oxygen in the ventricular wall by angiotensin II ([5]; LMG-blended feed, Ang II 7 days, hydroethidine staining, FIG. 4): remarkably suppressed
blood pressure ([6]; 0.055% luteolin-7-O-glucoside feed 3 weeks, then Ang II infusion 4 weeks, 20 weeks old, FIG. 8): not recognized
body weight ([6]; 0.055% luteolin-7-O-glucoside feed, Ang II 4 weeks, 20 weeks old, FIG. 8): not recognized
aneurysm formation (appearance) ([6]; 0.055% luteolin-7-O-glucoside feed, Ang II 4 weeks, FIG. 9): definitely suppressed
diameter of aneurysm ([6]; 0.055% luteolin-7-O-glucoside feed, Ang II 4 weeks, FIG. 10): decreased
rupture of the arterial wall elastic fiber ([6]; 0.055% luteolin-7-O-glucoside feed, Ang II 4 weeks, FIG. 11): suppressed
gene expression of TGF-β1 in ventricular tissue [7]: suppression of the expression
